Data as given in US20230365546A1, “5-SUBSTITUTED INDOLE 3-AMIDE DERIVATIVES, PREPARATION METHOD AND USE THEREOF” (ORIGIANT PHARMACEUTICAL CO., LTD, priority 2020, published 2023).

Key:
RIPK1 = RIPK1 (Homo sapiens (Human), UniProt Q13546); assay: In vitro kinase assay (Eurofins Kinase Profiler), IC50; format: biochemical; details: 0.001-10 μM, read-out: RIPK 1 (IC50)
HT-29 cells = assay: Protection against programmed necrosis of HT-29 cells (TNF α/Smac mimetic/Z-VAD-FMK, CCK8); format: cell-based; details: Homo sapiens, TNF α/Smac mimetic/Z-VAD-FMK induced 24 h, CCK8, read-out: HT-29 (EC50)
Description: In vitro protection against programmed necrosis of HT-29 cells was conducted by ourselves.
DMEM medium was purchased from Gibco Inc., penicillin and streptomycin were purchased from HyClone Inc., TNF α was purchased from PeproTech Inc., Smac mimetic and Z-VAD-FMK were purchased from Selleck Inc., CCK8 was purchased from Medchem Express Inc.
HT-29 cells (colon cancer cells) were cultured in DMEM+10% FBS+Penicillin/Streptomycin medium. During the experiments, HT-29 cells in logarithmic growth phase were harvested, seeded in a 96-well plate at specific numbers per well (typically 8×10^3 cells/well of adherent cells) and cultured overnight in a 37° C., 5% CO2 cell culture incubator. The next day, the compounds to be tested were diluted with culture medium to the corresponding concentrations and added into the corresponding wells of a 96-well plate, with 3 replicate wells for each sample, and a Vehicle control group and a blank Control group containing only culture medium were set at the same time. […] The absorbance was measured at 495 nm wavelength using a microplate reader, and the protection rate of the drug on the cells necrosis was calculated according to the following formula:
Protection rate of cell necrosis=[(X−C0)/(C−C0)]×100%
Wherein, C, C0, and X represent the mean absorbance values of the Vehicle control group, Blank control group and Drug treatment group, respectively.

Chain of RIPK1 (Q13546 whole entry): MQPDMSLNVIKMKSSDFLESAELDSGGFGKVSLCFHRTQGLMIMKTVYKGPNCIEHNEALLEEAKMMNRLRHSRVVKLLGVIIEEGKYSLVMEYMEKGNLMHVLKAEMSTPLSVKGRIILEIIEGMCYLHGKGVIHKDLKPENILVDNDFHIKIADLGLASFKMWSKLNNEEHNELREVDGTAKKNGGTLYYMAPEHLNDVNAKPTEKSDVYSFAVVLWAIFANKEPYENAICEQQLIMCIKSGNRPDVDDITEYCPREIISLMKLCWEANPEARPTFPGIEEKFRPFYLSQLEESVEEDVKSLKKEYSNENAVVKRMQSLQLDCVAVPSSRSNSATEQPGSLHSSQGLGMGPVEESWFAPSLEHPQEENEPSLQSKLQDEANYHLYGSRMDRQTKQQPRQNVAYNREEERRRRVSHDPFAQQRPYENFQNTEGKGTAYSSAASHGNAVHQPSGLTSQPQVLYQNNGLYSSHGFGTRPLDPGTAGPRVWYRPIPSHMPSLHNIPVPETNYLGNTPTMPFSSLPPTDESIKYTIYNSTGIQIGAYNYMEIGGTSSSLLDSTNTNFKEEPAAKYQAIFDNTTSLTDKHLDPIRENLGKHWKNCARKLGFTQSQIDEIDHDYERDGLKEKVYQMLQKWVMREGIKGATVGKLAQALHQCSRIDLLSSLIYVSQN

Compound | IC50 (RIPK1) | EC50 (HT-29 cells)
CC(C)C(=O)Nc1nc2ccc(-c3ccc4[nH]cc(C(=O)N[C@@H](C)c5cccc(F)c5)c4c3)cc2s1 [Compound 55] | 0.01 to 0.1 µM | 0.001 to 0.01 µM
CC(C)n1cc(C(=O)NCc2cc(F)ccc2F)c2cc(-c3ccc4nc(NC(=O)C5CC5)sc4c3)ccc21 [Compound 56] | 0.01 to 0.1 µM | 0.001 to 0.01 µM
CCCn1cc(C(=O)NCc2cc(F)ccc2F)c2cc(-c3ccc4nc(NC(=O)C5CC5)sc4c3)ccc21 [Compound 57] | 0.1 to 1 µM | 0.01 to 0.1 µM
CCCCn1cc(C(=O)NCc2cc(F)ccc2F)c2cc(-c3ccc4nc(NC(=O)C5CC5)sc4c3)ccc21 [Compound 58] | 0.1 to 1 µM | 0.1 to 1 µM
C[C@H](NC(=O)c1n[nH]c2ccc(-c3ccc4nc(NC(=O)C5CC5)sc4c3)cc12)c1cccc(F)c1 [Compound 59] | 0.01 to 0.1 µM | 0.001 to 0.01 µM
COc1cc(F)ccc1NC(=O)c1c[nH]c2ncc(-c3ccc4nc(NC(=O)C5CC5)sc4c3)cc12 [Compound 60] | ≥ 1 µM | ≥ 1 µM
COc1cc(F)ccc1NC(=O)c1n[nH]c2ccc(-c3ccc4nc(NC(=O)C5CC5)sc4c3)cc12 [Compound 61] | ≥ 1 µM | ≥ 1 µM
C[C@H](NC(=O)c1c[nH]c2ncc(-c3ccc4nc(NC(=O)C5CC5)sc4c3)cc12)c1cccc(F)c1 [Compound 62] | 0.1 to 1 µM | 0.001 to 0.01 µM
COc1ccc(NC(=O)c2c[nH]c3ncc(-c4ccc5nc(NC(=O)C6CC6)sc5c4)cc23)cc1OC [Compound 63] | 0.01 to 0.1 µM | 0.01 to 0.1 µM
COc1ccc(CNC(=O)c2c[nH]c3ncc(-c4ccc5nc(NC(=O)C6CC6)sc5c4)cc23)cc1OC [Compound 64] | 0.1 to 1 µM | 0.01 to 0.1 µM
COc1ccc(CNC(=O)c2cn(C)c3ccc(-c4ccc5nc(NC(=O)C6CC6)sc5c4)cc23)cc1OC [Compound 65] | 0.1 to 1 µM | 0.01 to 0.1 µM
Cn1cc(C(=O)N2CCN(Cc3ccc4c(c3)OCO4)CC2)c2cc(-c3ccc4nc(NC(=O)C5CC5)sc4c3)ccc21 [Compound 66] | ≥ 1 µM | ≥ 1 µM
COc1cc(CN2CCN(C(=O)c3cn(C)c4ccc(-c5ccc6nc(NC(=O)C7CC7)sc6c5)cc34)CC2)cc(OC)c1OC [Compound 67] | ≥ 1 µM | ≥ 1 µM
C[C@H](NC(=O)c1cn(C)c2ccc(-c3ccc(CN4CCN(C)CC4)cc3)cc12)c1cccc(F)c1 [Compound 68] | ≥ 1 µM | ≥ 1 µM

Now from value to molecule, other results behind:

IC50 (RIPK1) | Compound | EC50 (HT-29 cells)
≥ 1 µM | Cc1noc(C)c1-c1cnc2[nH]cc(C(=O)N[C@@H](C)c3cccc(F)c3)c2c1 [Compound 69] | ≥ 1 µM
≥ 1 µM | C[C@H](NC(=O)c1cn(C)c2ccc(-c3ccc(C(=O)N4CCOCC4)cc3)cc12)c1cccc(F)c1 [Compound 70] | 0.1 to 1 µM
≥ 1 µM | C[C@H](NC(=O)c1cn(C)c2ccc(-c3ccnn3C3CCCCO3)cc12)c1cccc(F)c1 (stereo partly drawn) [Compound 71] | ≥ 1 µM
≥ 1 µM | C[C@H](NC(=O)c1cn(C)c2ccc(-c3ccc(N4CCOCC4)cc3)cc12)c1cccc(F)c1 [Compound 72] | ≥ 1 µM
≥ 1 µM | C[C@H](NC(=O)c1cn(C)c2ccc(-c3ccc(N4CCOCC4)nc3)cc12)c1cccc(F)c1 [Compound 73] | ≥ 1 µM
0.1 to 1 µM | C[C@H](NC(=O)c1c[nH]c2ncc(-c3ccc(C(=O)N4CCOCC4)cc3)cc12)c1cccc(F)c1 [Compound 74] | 0.1 to 1 µM
≥ 1 µM | C[C@H](NC(=O)c1c[nH]c2ncc(-c3ccnn3C3CCCCO3)cc12)c1cccc(F)c1 (stereo partly drawn) [Compound 75] | 0.1 to 1 µM
0.1 to 1 µM | C[C@H](NC(=O)c1c[nH]c2ncc(-c3ccc(N4CCOCC4)cc3)cc12)c1cccc(F)c1 [Compound 76] | 0.1 to 1 µM
0.1 to 1 µM | C[C@H](NC(=O)c1c[nH]c2ncc(-c3ccc(N4CCOCC4)nc3)cc12)c1cccc(F)c1 [Compound 77] | 0.1 to 1 µM
≥ 1 µM | C[C@H](NC(=O)c1cn(C)c2ccc(-c3cc[nH]n3)cc12)c1cccc(F)c1 [Compound 78] | 0.1 to 1 µM
